Assay results from US7834023B2 (Portola Pharmaceuticals, Inc., priority 2006, dated 2010).

Target: T1, P2Y12 receptor (Homo sapiens, UniProt Q9H244)
T1 construct: endogenous in cells; host or cells: human platelets (outdated from blood banks or fresh), apyrase-washed, whole
Assay: platelet ADP receptor binding assay (ARB): inhibition of [3H]2-MeS-ADP binding to platelets
Conditions: [3H]2-MeS-ADP binding to apyrase-washed human platelets
Description: 1. The Ability of Candidate Molecules to Inhibit the Binding of [^3H]2-MeS-ADP to the […] Receptor on Platelets was Determined Using a Radioligand Binding Assay.
Utilizing this assay the potency of inhibition of such compounds with respect to [^3H]2-MeS-ADP binding to whole platelets is determined. Under the conditions described in II (3) below, the binding of [^3H]2-MeS-ADP is solely due to the interaction of this ligand with the P2Y12 receptor, in that all the specific binding measured in this assay is competable with a P2Y12 antagonist (i.e., the specific binding is reduced to background levels by competition with an excess of P2Y12 antagonist, with no competition of binding when a P2Y1 antagonist is pre-incubated with the platelet preparation). [^3H]2-MeS-ADP binding experiments are routinely performed with outdated human platelets collected by standard procedures at hospital blood banks. Apyrase-washed outdated platelets are prepared as follows (all steps at room temperature, if not indicated otherwise):
Outdated platelet suspensions are diluted with 1 volume of CGS and platelets pelleted by centrifugation at 1900×g for 45 minutes. Platelet pellets are resuspended at 3-6×10^9 platelets/ml in CGS containing 1 U/ml apyrase (grade V, Sigma, St. Louis, Mo.) and incubated for 15 minutes at 37° C. After centrifugation at 730×g for 20 minutes, pellets are resuspended in Hepes-Tyrode's buffer containing 0.1% BSA (Sigma, St. Louis, Mo.) at a concentration of 6.66×10^8 platelets/ml. Binding experiments are performed after >45 minutes resting of the platelets.
Alternatively, binding experiments are performed with fresh human platelets prepared as described in section I (Inhibition of ADP-Mediated Platelet Aggregation in vitro), except that platelets are resuspended in Hepes-Tyrode's buffer containing 0.1% BSA (Sigma, St. Louis, Mo.) at a concentration of 6.66×10^8 platelets/mil. Very similar results are obtained with fresh and outdated platelets.
A platelet ADP receptor binding assay (ARB) using the tritiated potent agonist ligand [^3H]2-MeS-ADP (Jantzen, H. M. et al. (1999) Thromb. Hemost. 81:111-117) has been adapted to the 96-well microtiter format. In an assay volume of 0.2 ml Hepes-Tyrode's buffer with 0.1% BSA and 0.6% DMSO, 1×10^8 apyrase-washed platelets are preincubated in 96-well flat bottom microtiter plates for 5 minutes with serial dilutions of test compounds before addition of 1 nM [^3H]2-MeS-ADP ([^3H]2-methylthioadenosine-5′-diphosphate, ammonium salt; specific activity 20-50 Ci/mmole, obtained by custom synthesis from Amersham Life Science, Inc., Arlington Heights, Ill., or NEN Life Science Products, Boston, Mass.). Total binding is determined in the absence of test compounds. Samples for nonspecific binding may contain 10 μM unlabelled 2-MeS-ADP (RBI, Natick, Mass.). After incubation for 15 minutes at room temperature, unbound radioligand is separated by rapid filtration and two washes with cold (4-8° C.) Binding Wash Buffer (10 mM Hepes pH 7.4, 138 mM NaCl) using a 96-well cell harvester (Minidisc 96, Skatron Instruments, Sterling, Va.) and 8×12 GF/C glassfiber filtermats (Printed Filtermat A, for 1450 Microbeta, Wallac Inc., Gaithersburg, Md.). The platelet-bound radioactivity on the filtermats is determined in a scintillation counter (Microbeta 1450, Wallac Inc., Gaithersburg, Md.). Specific binding is determined by subtraction of non-specific binding from total binding, and specific binding in the presence of test compounds is expressed as % of specific binding in the absence of test compound dilutions. IC50s were derived by non-linear regression analysis.

T1 sequence (Q9H244 whole entry): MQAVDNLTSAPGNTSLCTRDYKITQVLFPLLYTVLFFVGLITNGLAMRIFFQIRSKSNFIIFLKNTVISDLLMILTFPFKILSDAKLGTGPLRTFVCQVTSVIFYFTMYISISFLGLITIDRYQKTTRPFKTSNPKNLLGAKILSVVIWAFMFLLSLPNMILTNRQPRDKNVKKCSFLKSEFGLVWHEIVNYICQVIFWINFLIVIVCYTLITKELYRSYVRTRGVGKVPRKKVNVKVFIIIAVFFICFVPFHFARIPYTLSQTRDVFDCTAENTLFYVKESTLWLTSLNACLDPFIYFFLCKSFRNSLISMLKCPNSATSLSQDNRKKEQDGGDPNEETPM

IC50 | Compound
> 500 nM | CNc1cc2c(cc1F)C(=O)N(c1ccc(CC(=O)NC(C(=O)N3CCCC3)c3ccc(Cl)s3)cc1)CO2 (stereo not drawn) [Compound 121, N-(1-(5-chlorothiophen-2-yl)-2-oxo-2-(pyrrolidin-1-yl)ethyl)-2-(4-(6-fluoro-7-(methylamino)-4-oxo-2H-benzo[e][1,3]oxazin-3(4H)-yl)phenyl)acetamide]
> 500 nM | CNc1cc2c(cc1F)C(=O)N(c1ccc(C(=O)NC(C(=O)O)c3cccs3)cc1)CO2 (stereo not drawn) [Compound 63, 2-(4-(6-fluoro-7-(methylamino)-4-oxo-2H-benzo[e][1,3]oxazin-3(4H)-yl)benzamido)-2-(thiophen-2-yl)acetic acid]
> 500 nM | COC(=O)C(NC(=O)c1ccc(N2COc3ccc(C)cc3C2=O)cc1)c1ccc(Cl)s1 (stereo not drawn) [Compound 76, methyl 2-(5-chlorothiophen-2-yl)-2-(4-(6-methyl-4-oxo-2H-benzo[e][1,3]oxazin-3(4H)-yl)benzamido)acetate]
50 to 500 nM | CCOC(=O)C(NC(=O)c1ccc(N2COc3cc(NC)c(F)cc3C2=O)cc1)c1ccc(Cl)s1 (stereo not drawn) [Compound 67, ethyl 2-(5-chlorothiophen-2-yl)-2-(4-(6-fluoro-7-(methylamino)-4-oxo-2H-benzo[e][1,3]oxazin-3(4H)-yl)benzamido)acetate]
50 to 500 nM | CNc1cc2[nH]c(=O)n(-c3ccc(C(=O)NC(c4nsc(=O)[nH]4)c4ccc(Cl)s4)cc3)c(=O)c2cc1F (stereo not drawn) [Compound 25, N-((5-chlorothiophen-2-yl)(5-oxo-4,5-dihydro-1,2,4-thiadiazol-3-yl)methyl)-4-(6-fluoro-7-(methylamino)-2,4-dioxo-1,2-dihydroquinazolin-3(4H)-yl)benzamide]
50 to 500 nM | CNc1cc2c(cc1F)C(=O)N(c1ccc(C(=O)NC(C(=O)OC)c3ccc(Cl)s3)cc1)CO2 (stereo not drawn) [Compound 66, methyl 2-(5-chlorothiophen-2-yl)-2-(4-(6-fluoro-7-(methylamino)-4-oxo-2H-benzo[e][1,3]oxazin-3(4H)-yl)benzamido)acetate]
50 to 500 nM | CNc1cc2ncn(-c3ccc(C(=O)NC(C(=O)O)c4ccc(Cl)s4)cc3)c(=O)c2cc1F (stereo not drawn) [Compound 116, 2-(5-chlorothiophen-2-yl)-2-(4-(6-fluoro-7-(methylamino)-4-oxoquinazolin-3(4H)-yl)benzamido)acetic acid]
50 to 500 nM | CCc1ccc2c(c1)OCN(c1ccc(C(=O)NC(C(=O)O)c3ccc(Cl)s3)cc1)C2=O (stereo not drawn) [Compound 78, 2-(5-chlorothiophen-2-yl)-2-(4-(7-ethyl-4-oxo-2H-benzo[e][1,3]oxazin-3(4H)-yl)benzamido)acetic acid]
50 to 500 nM | CNc1cc2[nH]c(=O)n(-c3ccc(CNC(CC(=O)O)c4ccc(Cl)s4)cc3)c(=O)c2cc1F (stereo not drawn) [Compound 104, 3-(5-chlorothiophen-2-yl)-3-(4-(6-fluoro-7-(methylamino)-2,4-dioxo-1,2-dihydroquinazolin-3(4H)-yl)benzylamino)propanoic acid]
50 to 500 nM | CNc1cc2c(cc1F)C(=O)N(c1ccc(CC(=O)NC(C(=O)OC)c3ccc(Cl)s3)cc1)CO2 (stereo not drawn) [Compound 118, methyl 2-(5-chlorothiophen-2-yl)-2-(2-(4-(6-fluoro-7-(methylamino)-4-oxo-2H-benzo[e][1,3]oxazin-3(4H)-yl)phenyl)acetamido)acetate]
50 to 500 nM | CNc1cc2cnn(-c3ccc(C(=O)NC(C(=O)O)c4ccc(Cl)s4)cc3)c(=O)c2cc1F (stereo not drawn) [Compound 117, 2-(5-chlorothiophen-2-yl)-2-(4-(7-fluoro-6-(methylamino)-1-oxophthalazin-2(1H)-yl)benzamido)acetic acid]
> 500 nM | COc1ccc2c(=O)n(-c3ccc(C(=O)NC(C(=O)O)c4ccc(Cl)s4)cc3)ccc2c1 (stereo not drawn) [Compound 101, 2-(5-chlorothiophen-2-yl)-2-(4-(6-methoxy-1-oxoisoquinolin-2(1H)-yl)benzamido)acetic acid]
> 500 nM | CNc1cc2[nH]c(=O)n(-c3ccc(CN(CC(=O)O)C(=O)c4ccc(Cl)s4)cc3)c(=O)c2cc1F [Compound 103, 2-(5-chloro-N-(4-(6-fluoro-7-(methylamino)-2,4-dioxo-1,2-dihydroquinazolin-3(4H)-yl)benzyl)thiophene-2-carboxamido)acetic acid]
> 500 nM | COc1cccc2c1OCN(c1ccc(C(=O)NC(C(=O)O)c3ccc(Cl)s3)cc1)C2=O (stereo not drawn) [Compound 68, 2-(5-chlorothiophen-2-yl)-2-(4-(8-methoxy-4-oxo-2H-benzo[e][1,3]oxazin-3(4H)-yl)benzamido)acetic acid]
> 500 nM | CNc1cc2[nH]c(=O)n(-c3ccc(C(=O)NC(Cc4cccs4)C(=O)O)cc3)c(=O)c2cc1F (stereo not drawn) [Compound 9, 2-(4-(6-fluoro-7-(methylamino)-2,4-dioxo-1,2-dihydroquinazolin-3(4H)-yl)benzamido)-3-(thiophen-2-yl)propanoic acid]
50 to 500 nM | CNc1ccc2c(=O)n(-c3ccc(C(=O)NC(C(=O)O)c4ccc(Cl)s4)cc3)c(=O)[nH]c2c1 (stereo not drawn) [Compound 20, 2-(5-chlorothiophen-2-yl)-2-(4-(7-(methylamino)-2,4-dioxo-1,2-dihydroquinazolin-3(4H)-yl)benzamido)acetic acid]
> 500 nM | CNc1cc2[nH]c(=O)n(-c3ccc(C(=O)N(CCC(=O)O)Cc4ccc(Cl)s4)cc3)c(=O)c2cc1F [Compound 40, 3-(N-((5-chlorothiophen-2-yl)methyl)-4-(6-fluoro-7-(methylamino)-2,4-dioxo-1,2-dihydroquinazolin-3(4H)-yl)benzamido)propanoic acid]
50 to 500 nM | CNc1cc2c(cc1F)C(=O)N(c1ccc(C(=O)NC(c3ccc(Cl)s3)c3nc(C)cs3)cc1)CO2 (stereo not drawn) [Compound 85, N-((5-chlorothiophen-2-yl)(4-methylthiazol-2-yl)methyl)-4-(6-fluoro-7-(methylamino)-4-oxo-2H-benzo[e][1,3]oxazin-3(4H)-yl)benzamide]
50 to 500 nM | CNc1cc2c(cc1F)C(=O)N(c1ccc(C(=O)N[C@@H](Cc3ccccc3)C(=O)O)cc1)CO2 [Compound 60, (S)-2-(4-(6-fluoro-7-(methylamino)-4-oxo-2H-benzo[e][1,3]oxazin-3(4H)-yl)benzamido)-3-phenylpropanoic acid]
> 500 nM | CCc1ccc2c(c1)C(=O)N(c1ccc(C(=O)NC(C(=O)O)c3ccc(Cl)s3)cc1)CO2 (stereo not drawn) [Compound 72, 2-(5-chlorothiophen-2-yl)-2-(4-(6-ethyl-4-oxo-2H-benzo[e][1,3]oxazin-3(4H)-yl)benzamido)acetic acid]
> 500 nM | CNc1cc2[nH]c(=O)n(-c3ccc(C(=O)NC(c4cccc(C(F)(F)F)c4)c4nnn[nH]4)cc3)c(=O)c2cc1F (stereo not drawn) [Compound 34]
50 to 500 nM | CNc1cc2[nH]c(=O)n(-c3ccc(C(=O)NC(C(=O)O)c4ccc(Cl)s4)s3)c(=O)c2cc1F (stereo not drawn) [Compound 112, 2-(5-chlorothiophen-2-yl)-2-(5-(6-fluoro-7-(methylamino)-2,4-dioxo-1,2-dihydroquinazolin-3(4H)-yl)thiophene-2-carboxamido)acetic acid]
50 to 500 nM | O=C(NC(C(=O)O)c1ccc(Cl)s1)c1ccc(-n2c(=O)[nH]c3ccc(I)cc3c2=O)cc1 (stereo not drawn) [Compound 37, 2-(5-chlorothiophen-2-yl)-2-(4-(6-iodo-2,4-dioxo-1,2-dihydroquinazolin-3(4H)-yl)benzamido)acetic acid]
50 to 500 nM | CNc1cc2[nH]c(=O)n(-c3ccc(C(=O)NCc4ccc(Cl)s4)cc3)c(=O)c2cc1F [Compound 4, N-((5-chlorothiophen-2-yl)methyl)-4-(6-fluoro-7-(methylamino)-2,4-dioxo-1,2-dihydroquinazolin-3(4H)-yl)benzamide]
